Measurements taken from ChEMBL document CHEMBL5252552, “Defined concatenated α6α1β3γ2 GABAA receptor constructs reveal dual action of pyrazoloquinolinone allosteric modulators” (Bioorg Med Chem, 2019).

What was measured:
[1] = target: T1, Gamma-aminobutyric acid receptor subunit alpha-6/beta-3/gamma-2 (Rattus norvegicus) (UniProt P18508+P30191+P63079); test: Positive allosteric modulation of rat recombinant GABAA alpha6beta3gamma2 receptor expressed in Xenopus laevis oocytes assessed as maximal current at -80 mV holding potential under more potent phase in presence of GABA EC1 to 1.5 by two-electrode voltage-clamp assay relative to control; assay type: cell-based; details: Oocyte, filed as positive allosteric modulator
[2] = target: T2, Gamma-aminobutyric acid receptor subunit alpha-1/alpha-6/beta-3/gamma-2 (Rattus norvegicus) (UniProt P18508+P30191+P62813+P63079); test: Positive allosteric modulation of rat recombinant GABAA alpha6beta3alpha1-gamma2beta3 receptor expressed in Xenopus laevis oocytes assessed as maximal efficacy at -80 mV holding potential at 1 uM in presence of GABA EC1 to 1.5 by two-electrode voltage-clamp assay; assay type: cell-based; details: Oocyte, filed as positive allosteric modulator
[3] = target: T1, Gamma-aminobutyric acid receptor subunit alpha-6/beta-3/gamma-2 (Rattus norvegicus); test: Positive allosteric modulation of rat recombinant GABAA alpha6beta3alpha6-gamma2beta3 receptor expressed in Xenopus laevis oocytes assessed as maximal efficacy at -80 mV holding potential at 10 nM in presence of GABA EC1 to 1.5 by two-electrode voltage-clamp assay; assay type: cell-based; details: Oocyte
[4] = target: T3, Gamma-aminobutyric acid receptor subunit alpha-1/beta-3/gamma-2 (Rattus norvegicus) (UniProt P18508+P62813+P63079); test: Positive allosteric modulation of rat recombinant GABAA alpha1beta3alpha1-gamma2beta3 receptor expressed in Xenopus laevis oocytes assessed as maximal efficacy at -80 mV holding potential at 30 nM in presence of GABA EC1 to 1.5 by two-electrode voltage-clamp assay; assay type: cell-based; details: Oocyte
[5] = target: T1, Gamma-aminobutyric acid receptor subunit alpha-6/beta-3/gamma-2 (Rattus norvegicus); test: Positive allosteric modulation of rat recombinant GABAA alpha6beta3gamma2 receptor expressed in Xenopus laevis oocytes assessed as maximal efficacy at -80 mV holding potential at 10 nM in presence of GABA EC1 to 1.5 by two-electrode voltage-clamp assay; assay type: cell-based; details: Oocyte
[6] = target: T1, Gamma-aminobutyric acid receptor subunit alpha-6/beta-3/gamma-2 (Rattus norvegicus); test: Positive allosteric modulation of rat recombinant GABAA alpha6beta3gamma2 receptor expressed in Xenopus laevis oocytes assessed as maximal efficacy at -80 mV holding potential at 30 nM in presence of GABA EC1 to 1.5 by two-electrode voltage-clamp assay; assay type: cell-based; details: Oocyte, filed as positive allosteric modulator
[7] = target: T3, Gamma-aminobutyric acid receptor subunit alpha-1/beta-3/gamma-2 (Rattus norvegicus); test: Positive allosteric modulation of rat recombinant GABAA alpha1beta3gamma2 receptor expressed in Xenopus laevis oocytes assessed as maximal efficacy at -80 mV holding potential at 3 uM in presence of GABA EC1 to 1.5 by two-electrode voltage-clamp assay; assay type: cell-based; details: Oocyte, filed as positive allosteric modulator
[8] = target: T3, Gamma-aminobutyric acid receptor subunit alpha-1/beta-3/gamma-2 (Rattus norvegicus); test: Positive allosteric modulation of rat recombinant GABAA alpha1beta3gamma2 receptor expressed in Xenopus laevis oocytes assessed as maximal efficacy at -80 mV holding potential at 10 uM in presence of GABA EC1 to 1.5 by two-electrode voltage-clamp assay; assay type: cell-based; details: Oocyte, filed as positive allosteric modulator
[9] = target: T2, Gamma-aminobutyric acid receptor subunit alpha-1/alpha-6/beta-3/gamma-2 (Rattus norvegicus); test: Positive allosteric modulation of rat recombinant GABAA gamma2beta3alpha1-beta3alpha6 receptor expressed in Xenopus laevis oocytes assessed as maximal efficacy at -80 mV holding potential at 30 nM in presence of GABA EC1 to 1.5 by two-electrode voltage-clamp assay; assay type: cell-based; details: Oocyte
[10] = target: T3, Gamma-aminobutyric acid receptor subunit alpha-1/beta-3/gamma-2 (Rattus norvegicus); test: Positive allosteric modulation of rat recombinant GABAA alpha1beta3gamma2 receptor expressed in Xenopus laevis oocytes assessed as maximal efficacy at -80 mV holding potential at 30 nM in presence of GABA EC1 to 1.5 by two-electrode voltage-clamp assay; assay type: cell-based; details: Oocyte
[11] = target: T1, Gamma-aminobutyric acid receptor subunit alpha-6/beta-3/gamma-2 (Rattus norvegicus); test: Positive allosteric modulation of rat recombinant GABAA alpha6beta3gamma2 receptor expressed in Xenopus laevis oocytes assessed as maximal current at -80 mV holding potential under less potent phase in presence of GABA EC1 to 1.5 by two-electrode voltage-clamp assay relative to control; assay type: cell-based; details: Oocyte, filed as positive allosteric modulator
[12] = target: Gamma-aminobutyric acid receptor subunit alpha-6/beta-3/gamma-2 (Rattus norvegicus, UniProt P18508+P30191+P63079); test: (§1) Positive allosteric modulation of rat recombinant GABAA alpha6beta3gamma2 receptor expressed in Xenopus laevis oocytes assessed as increase in GABA-induced current amplitude at -80 mV holding potential under more potent phase in presence of GABA EC1 to 1.5 by two-electrode voltage-clamp assay; assay type: cell-based, Oocyte
[13] = target: T2, Gamma-aminobutyric acid receptor subunit alpha-1/alpha-6/beta-3/gamma-2 (Rattus norvegicus); test: Positive allosteric modulation of rat recombinant GABAA gamma2beta3alpha1-beta3alpha6 receptor expressed in Xenopus laevis oocytes assessed as maximal efficacy at -80 mV holding potential at 30 uM in presence of GABA EC1 to 1.5 by two-electrode voltage-clamp assay; assay type: cell-based; details: Oocyte, filed as positive allosteric modulator
[14] = target: Gamma-aminobutyric acid receptor subunit alpha-1/alpha-6/beta-3/gamma-2 (Rattus norvegicus, UniProt P18508+P30191+P62813+P63079); test: as §1, with “gamma2beta3alpha1-beta3alpha6” for “alpha6beta3gamma2”, “less” for “more”; assay type: cell-based, Oocyte
[15] = target: T2, Gamma-aminobutyric acid receptor subunit alpha-1/alpha-6/beta-3/gamma-2 (Rattus norvegicus); test: Positive allosteric modulation of rat recombinant GABAA alpha6beta3alpha1-gamma2beta3 receptor expressed in Xenopus laevis oocytes assessed as maximal efficacy at -80 mV holding potential at 30 uM in presence of GABA EC1 to 1.5 by two-electrode voltage-clamp assay; assay type: cell-based; details: Oocyte, filed as positive allosteric modulator
[16] = target: T1, Gamma-aminobutyric acid receptor subunit alpha-6/beta-3/gamma-2 (Rattus norvegicus); test: Positive allosteric modulation of rat recombinant GABAA alpha6beta3gamma2 receptor expressed in Xenopus laevis oocytes assessed as maximal efficacy at -80 mV holding potential at 3 nM in presence of GABA EC1 to 1.5 by two-electrode voltage-clamp assay; assay type: cell-based; details: Oocyte
[17] = target: T1, Gamma-aminobutyric acid receptor subunit alpha-6/beta-3/gamma-2 (Rattus norvegicus); test: Positive allosteric modulation of rat recombinant GABAA alpha6beta3gamma2 receptor expressed in Xenopus laevis oocytes assessed as maximal efficacy at -80 mV holding potential at 10 uM in presence of GABA EC1 to 1.5 by two-electrode voltage-clamp assay; assay type: cell-based; details: Oocyte, filed as positive allosteric modulator
[18] = target: T1, Gamma-aminobutyric acid receptor subunit alpha-6/beta-3/gamma-2 (Rattus norvegicus); test: Positive allosteric modulation of rat recombinant GABAA alpha6beta3alpha6-gamma2beta3 receptor expressed in Xenopus laevis oocytes assessed as maximal efficacy at -80 mV holding potential at 10 uM in presence of GABA EC1 to 1.5 by two-electrode voltage-clamp assay; assay type: cell-based; details: Oocyte, filed as positive allosteric modulator
[19] = target: T2, Gamma-aminobutyric acid receptor subunit alpha-1/alpha-6/beta-3/gamma-2 (Rattus norvegicus); test: Positive allosteric modulation of rat recombinant GABAA alpha6beta3alpha1-gamma2beta3 receptor expressed in Xenopus laevis oocytes assessed as maximal efficacy at -80 mV holding potential at 3 uM in presence of GABA EC1 to 1.5 by two-electrode voltage-clamp assay; assay type: cell-based; details: Oocyte, filed as positive allosteric modulator
[20] = target: T3, Gamma-aminobutyric acid receptor subunit alpha-1/beta-3/gamma-2 (Rattus norvegicus); test: Positive allosteric modulation of rat recombinant GABAA alpha1beta3alpha1-gamma2beta3 receptor expressed in Xenopus laevis oocytes assessed as maximal efficacy at -80 mV holding potential at 3 uM in presence of GABA EC1 to 1.5 by two-electrode voltage-clamp assay; assay type: cell-based; details: Oocyte, filed as positive allosteric modulator
[21] = target: T2, Gamma-aminobutyric acid receptor subunit alpha-1/alpha-6/beta-3/gamma-2 (Rattus norvegicus); test: Positive allosteric modulation of rat recombinant GABAA gamma2beta3alpha1-beta3alpha6 receptor expressed in Xenopus laevis oocytes assessed as maximal efficacy at -80 mV holding potential at 1 nM in presence of GABA EC1 to 1.5 by two-electrode voltage-clamp assay; assay type: cell-based; details: Oocyte
[22] = target: T1, Gamma-aminobutyric acid receptor subunit alpha-6/beta-3/gamma-2 (Rattus norvegicus); test: Positive allosteric modulation of rat recombinant GABAA alpha6beta3alpha6-gamma2beta3 receptor expressed in Xenopus laevis oocytes assessed as maximal efficacy at -80 mV holding potential at 1 uM in presence of GABA EC1 to 1.5 by two-electrode voltage-clamp assay; assay type: cell-based; details: Oocyte, filed as positive allosteric modulator
[23] = target: T1, Gamma-aminobutyric acid receptor subunit alpha-6/beta-3/gamma-2 (Rattus norvegicus); test: Positive allosteric modulation of rat recombinant GABAA alpha6beta3alpha6-gamma2beta3 receptor expressed in Xenopus laevis oocytes assessed as maximal efficacy at -80 mV holding potential at 100 nM in presence of GABA EC1 to 1.5 by two-electrode voltage-clamp assay; assay type: cell-based; details: Oocyte, filed as positive allosteric modulator

Chain of Gamma-aminobutyric acid receptor subunit alpha-1/alpha-6/beta-3/gamma-2 (P18508 whole entry): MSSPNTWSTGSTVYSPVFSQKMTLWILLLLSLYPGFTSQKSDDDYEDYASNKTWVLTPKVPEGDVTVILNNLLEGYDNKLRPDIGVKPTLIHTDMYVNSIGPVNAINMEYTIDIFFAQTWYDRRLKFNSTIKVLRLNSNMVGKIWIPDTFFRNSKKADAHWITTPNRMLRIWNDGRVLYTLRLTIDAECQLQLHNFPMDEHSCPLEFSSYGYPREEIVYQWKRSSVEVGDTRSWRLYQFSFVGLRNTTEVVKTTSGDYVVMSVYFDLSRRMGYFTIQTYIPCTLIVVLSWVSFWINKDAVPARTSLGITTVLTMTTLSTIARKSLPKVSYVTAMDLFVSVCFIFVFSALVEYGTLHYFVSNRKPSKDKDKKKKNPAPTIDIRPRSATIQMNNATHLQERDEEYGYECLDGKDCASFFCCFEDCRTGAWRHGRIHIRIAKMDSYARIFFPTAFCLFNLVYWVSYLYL
Chain of Gamma-aminobutyric acid receptor subunit alpha-1/alpha-6/beta-3/gamma-2 (P30191 whole entry): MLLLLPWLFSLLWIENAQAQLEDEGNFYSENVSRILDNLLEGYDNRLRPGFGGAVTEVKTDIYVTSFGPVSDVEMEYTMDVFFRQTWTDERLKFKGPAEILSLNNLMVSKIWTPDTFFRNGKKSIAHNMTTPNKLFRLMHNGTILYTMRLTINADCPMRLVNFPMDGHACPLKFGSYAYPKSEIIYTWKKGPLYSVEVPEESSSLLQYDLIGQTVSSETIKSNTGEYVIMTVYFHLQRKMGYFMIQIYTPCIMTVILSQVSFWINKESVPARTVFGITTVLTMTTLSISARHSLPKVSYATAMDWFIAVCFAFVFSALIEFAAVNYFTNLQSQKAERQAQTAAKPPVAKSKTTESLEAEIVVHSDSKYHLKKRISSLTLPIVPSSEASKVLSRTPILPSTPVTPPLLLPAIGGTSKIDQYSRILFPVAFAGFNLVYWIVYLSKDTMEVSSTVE
Chain of Gamma-aminobutyric acid receptor subunit alpha-1/alpha-6/beta-3/gamma-2 (P62813 whole entry): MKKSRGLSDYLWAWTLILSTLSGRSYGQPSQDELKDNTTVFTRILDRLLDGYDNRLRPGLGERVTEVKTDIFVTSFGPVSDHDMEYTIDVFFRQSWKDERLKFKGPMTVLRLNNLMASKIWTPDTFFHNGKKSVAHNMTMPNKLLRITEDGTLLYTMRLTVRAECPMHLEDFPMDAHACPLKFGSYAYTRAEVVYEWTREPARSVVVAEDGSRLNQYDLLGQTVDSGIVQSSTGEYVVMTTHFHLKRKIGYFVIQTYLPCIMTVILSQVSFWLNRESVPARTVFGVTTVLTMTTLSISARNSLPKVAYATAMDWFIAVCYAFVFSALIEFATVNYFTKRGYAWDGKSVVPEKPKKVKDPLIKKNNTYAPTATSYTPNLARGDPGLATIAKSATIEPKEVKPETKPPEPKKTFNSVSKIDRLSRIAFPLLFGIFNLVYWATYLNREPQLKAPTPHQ
Chain of Gamma-aminobutyric acid receptor subunit alpha-1/alpha-6/beta-3/gamma-2 (P63079 whole entry): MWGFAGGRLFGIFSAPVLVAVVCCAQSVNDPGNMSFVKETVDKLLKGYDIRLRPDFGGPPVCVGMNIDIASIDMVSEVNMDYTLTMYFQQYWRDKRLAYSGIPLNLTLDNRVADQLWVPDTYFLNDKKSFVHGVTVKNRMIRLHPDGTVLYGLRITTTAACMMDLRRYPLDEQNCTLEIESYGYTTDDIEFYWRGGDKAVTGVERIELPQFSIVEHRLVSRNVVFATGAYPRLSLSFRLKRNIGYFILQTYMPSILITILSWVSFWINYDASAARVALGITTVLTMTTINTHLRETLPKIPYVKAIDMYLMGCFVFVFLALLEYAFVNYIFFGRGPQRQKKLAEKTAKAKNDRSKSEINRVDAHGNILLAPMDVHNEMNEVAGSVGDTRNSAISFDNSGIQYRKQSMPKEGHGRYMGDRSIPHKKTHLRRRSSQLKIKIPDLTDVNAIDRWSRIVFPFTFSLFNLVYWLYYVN
Chain of Gamma-aminobutyric acid receptor subunit alpha-6/beta-3/gamma-2 (P18508 whole entry): as the sequence (P18508 whole entry) above
Chain of Gamma-aminobutyric acid receptor subunit alpha-6/beta-3/gamma-2 (P30191 whole entry): as the sequence (P30191 whole entry) above
Chain of Gamma-aminobutyric acid receptor subunit alpha-6/beta-3/gamma-2 (P63079 whole entry): as the sequence (P63079 whole entry) above

## COc1ccc(-n2nc3c4ccc(Br)cc4[nH]cc-3c2=O)cc1
[1]
  %max: 70%
[2]
  Efficacy: 144%
[3]
  Efficacy: 33%
[4]
  Efficacy: 5%
[5]
  Efficacy: 24%
[6]
  Efficacy: 49%
[7]
  Efficacy: 54%
[8]
  Efficacy: 84%
[9]
  Efficacy: 31%
[10]
  Efficacy: 2%
[11]
  %max: 580%
[12]
  EC50: 0.001 µM
[13]
  Efficacy: 210%
[14]
  EC50: 36 µM
[15]
  Efficacy: 838%
[16]
  Efficacy: 23%
[17]
  Efficacy: 585%
[18]
  Efficacy: 621%
[19]
  Efficacy: 363%
[20]
  Efficacy: 95%
[21]
  Efficacy: 3%
[22]
  Efficacy: 196%
[23]
  Efficacy: 101%
